Assay results: patent publication US20240000872A1, “NOVEL BACTERIOPHAGE THAT LYSES ACINETOBACTER GENUS BACTERIA HAVING RESISTANCE TO ANTIBIOTICS” (priority 2020, published 2024)

Tested on: Acinetobacter baumannii strains
Experiment: Antibiotic susceptibility test (CLSI disk diffusion test method, read per CLSI 2016); as to antibiotic susceptibility S/I/R: key: ‘S’ means susceptible; ‘I’ means intermediate; ‘R’ means resistant; as to susceptibility category (S/I/R): key: ‘S’ means susceptible; ‘I’ means intermediate; ‘R’ means resistant
Format: cell-based
Set-up: antibiotic susceptibility test value / susceptibility test value (number given before S/I/R) / antibiotic susceptibility value: unit not given here

colistin
0.5: antibiotic susceptibility value (host strain YMC16/01/R353) | susceptibility test value (number given before S/I/R) (host strain YMC16/01/R353) | antibiotic susceptibility value (host strain YMC16/01/R380) | susceptibility test value (number given before S/I/R) (host strain YMC16/01/R380) | antibiotic susceptibility value (host strain YMC16/01/R397) | susceptibility test value (number given before S/I/R) (host strain YMC16/01/R397) | antibiotic susceptibility value (host strain YMC16/01/R405) | susceptibility test value (number given before S/I/R) (host strain YMC16/01/R405) | antibiotic susceptibility value (host strain YMC16/12/B11422) | susceptibility test value (number given before S/I/R) (host strain YMC16/12/B11422) | antibiotic susceptibility value (host strain YMC16/12/B11449) | susceptibility test value (number given before S/I/R) (host strain YMC16/12/B11449) | antibiotic susceptibility value (host strain YMC16/12/B13325) | susceptibility test value (number given before S/I/R) (host strain YMC16/12/B13325) | antibiotic susceptibility value (host strain YMC17/01/B8053) | susceptibility test value (number given before S/I/R) (host strain YMC17/01/B8053) | antibiotic susceptibility value (host strain YMC17/01/B10087) | susceptibility test value (number given before S/I/R) (host strain YMC17/01/B10087) | antibiotic susceptibility value (host strain YMC17/01/B13454) | susceptibility test value (number given before S/I/R) (host strain YMC17/01/B13454) | antibiotic susceptibility value (host strain YMC17/01/P518) | susceptibility test value (number given before S/I/R) (host strain YMC17/01/P518) | antibiotic susceptibility value (host strain YMC17/02/B14) | susceptibility test value (number given before S/I/R) (host strain YMC17/02/B14) | antibiotic susceptibility value (host strain YMC17/02/B87) | susceptibility test value (number given before S/I/R) (host strain YMC17/02/B87) | antibiotic susceptibility value (host strain YMC17/02/B721) | susceptibility test value (number given before S/I/R) (host strain YMC17/02/B721) | antibiotic susceptibility value (host strain YMC17/02/B4039) | susceptibility test value (number given before S/I/R) (host strain YMC17/02/B4039) | antibiotic susceptibility value (host strain YMC17/02/B4520) | susceptibility test value (number given before S/I/R) (host strain YMC17/02/B4520) | antibiotic susceptibility value (host strain YMC17/02/B4864) | susceptibility test value (number given before S/I/R) (host strain YMC17/02/B4864) | antibiotic susceptibility value (host strain YMC17/02/B8414) | susceptibility test value (number given before S/I/R) (host strain YMC17/02/B8414) | antibiotic susceptibility value (host strain YMC17/02/P523) | susceptibility test value (number given before S/I/R) (host strain YMC17/02/P523) | antibiotic susceptibility value (host strain YMC17/03/B4730) | susceptibility test value (number given before S/I/R) (host strain YMC17/03/B4730) | antibiotic susceptibility value (host strain YMC17/03/B5000) | susceptibility test value (number given before S/I/R) (host strain YMC17/03/B5000) | antibiotic susceptibility value (host strain YMC17/03/R4077) | susceptibility test value (number given before S/I/R) (host strain YMC17/03/R4077) | antibiotic susceptibility value (host strain YMC17/03/R4607) | susceptibility test value (number given before S/I/R) (host strain YMC17/03/R4607)
16: antibiotic susceptibility value (host strain YMC16/03/R4461) | susceptibility test value (number given before S/I/R) (host strain YMC16/03/R4461) | antibiotic susceptibility value (host strain YMC16/05/R2210) | susceptibility test value (number given before S/I/R) (host strain YMC16/05/R2210) | antibiotic susceptibility value (host strain YMC16/07/R2512) | susceptibility test value (number given before S/I/R) (host strain YMC16/07/R2512) | antibiotic susceptibility value (host strain YMC16/09/R2471) | susceptibility test value (number given before S/I/R) (host strain YMC16/09/R2471) | antibiotic susceptibility value (host strain YMC16/10/R2537) | susceptibility test value (number given before S/I/R) (host strain YMC16/10/R2537) | antibiotic susceptibility value (host strain YMC16/12/P503) | susceptibility test value (number given before S/I/R) (host strain YMC16/12/P503) | antibiotic susceptibility value (host strain YMC16/12/R4637) | susceptibility test value (number given before S/I/R) (host strain YMC16/12/R4637) | antibiotic susceptibility value (host strain YMC17/01/R2812) | susceptibility test value (number given before S/I/R) (host strain YMC17/01/R2812) | antibiotic susceptibility value (host strain YMC17/02/R541) | susceptibility test value (number given before S/I/R) (host strain YMC17/02/R541) | antibiotic susceptibility value (host strain YMC17/02/R2392) | antibiotic susceptibility value (host strain YMC17/03/P971) | susceptibility test value (number given before S/I/R) (host strain YMC17/03/P971) | antibiotic susceptibility value (host strain YMC17/03/R348) | antibiotic susceptibility value (host strain YMC17/03/R585) | susceptibility test value (number given before S/I/R) (host strain YMC17/03/R585) | antibiotic susceptibility value (host strain YMC17/03/R1888) | susceptibility test value (number given before S/I/R) (host strain YMC17/03/R1888) | antibiotic susceptibility value (host strain YMC17/03/R3279) | susceptibility test value (number given before S/I/R) (host strain YMC17/03/R3279) | antibiotic susceptibility value (host strain YMC/17/05/R1095) | susceptibility test value (number given before S/I/R) (host strain YMC/17/05/R1095)
4: susceptibility test value (number given before S/I/R) (host strain YMC17/02/R2392) | susceptibility test value (number given before S/I/R) (host strain YMC17/03/R348)
R: antibiotic susceptibility S/I/R (host strain YMC16/03/R4461) | susceptibility category (S/I/R) (host strain YMC16/03/R4461) | antibiotic susceptibility S/I/R (host strain YMC16/05/R2210) | susceptibility category (S/I/R) (host strain YMC16/05/R2210) | antibiotic susceptibility S/I/R (host strain YMC16/07/R2512) | susceptibility category (S/I/R) (host strain YMC16/07/R2512) | antibiotic susceptibility S/I/R (host strain YMC16/09/R2471) | susceptibility category (S/I/R) (host strain YMC16/09/R2471) | antibiotic susceptibility S/I/R (host strain YMC16/10/R2537) | susceptibility category (S/I/R) (host strain YMC16/10/R2537) | antibiotic susceptibility S/I/R (host strain YMC16/12/P503) | susceptibility category (S/I/R) (host strain YMC16/12/P503) | antibiotic susceptibility S/I/R (host strain YMC16/12/R4637) | susceptibility category (S/I/R) (host strain YMC16/12/R4637) | antibiotic susceptibility S/I/R (host strain YMC17/01/R2812) | susceptibility category (S/I/R) (host strain YMC17/01/R2812) | antibiotic susceptibility S/I/R (host strain YMC17/02/R541) | susceptibility category (S/I/R) (host strain YMC17/02/R541) | antibiotic susceptibility S/I/R (host strain YMC17/02/R2392) | susceptibility category (S/I/R) (host strain YMC17/02/R2392) | antibiotic susceptibility S/I/R (host strain YMC17/03/P971) | susceptibility category (S/I/R) (host strain YMC17/03/P971) | antibiotic susceptibility S/I/R (host strain YMC17/03/R348) | susceptibility category (S/I/R) (host strain YMC17/03/R348) | antibiotic susceptibility S/I/R (host strain YMC17/03/R585) | susceptibility category (S/I/R) (host strain YMC17/03/R585) | antibiotic susceptibility S/I/R (host strain YMC17/03/R1888) | susceptibility category (S/I/R) (host strain YMC17/03/R1888) | antibiotic susceptibility S/I/R (host strain YMC17/03/R3279) | susceptibility category (S/I/R) (host strain YMC17/03/R3279) | antibiotic susceptibility S/I/R (host strain YMC17/04/R488) | susceptibility category (S/I/R) (host strain YMC17/04/R488) | antibiotic susceptibility S/I/R (host strain YMC17/04/R640) | susceptibility category (S/I/R) (host strain YMC17/04/R640) | antibiotic susceptibility S/I/R (host strain YMC/17/05/R1095) | susceptibility category (S/I/R) (host strain YMC/17/05/R1095)
8: antibiotic susceptibility value (host strain YMC17/04/R488) | susceptibility test value (number given before S/I/R) (host strain YMC17/04/R488) | antibiotic susceptibility value (host strain YMC17/04/R640) | susceptibility test value (number given before S/I/R) (host strain YMC17/04/R640)
22: antibiotic susceptibility value (host strain YMC17/01/B12075) | susceptibility test value (number given before S/I/R) (host strain YMC17/01/B12075)
S: susceptibility category (S/I/R) (host strain YMC16/01/R353) | antibiotic susceptibility S/I/R (host strain YMC16/01/R380) | susceptibility category (S/I/R) (host strain YMC16/01/R380) | antibiotic susceptibility S/I/R (host strain YMC16/01/R397) | susceptibility category (S/I/R) (host strain YMC16/01/R397) | antibiotic susceptibility S/I/R (host strain YMC16/01/R405) | susceptibility category (S/I/R) (host strain YMC16/01/R405) | antibiotic susceptibility S/I/R (host strain YMC16/12/B11422) | susceptibility category (S/I/R) (host strain YMC16/12/B11422) | antibiotic susceptibility S/I/R (host strain YMC16/12/B11449) | susceptibility category (S/I/R) (host strain YMC16/12/B11449) | antibiotic susceptibility S/I/R (host strain YMC16/12/B13325) | susceptibility category (S/I/R) (host strain YMC16/12/B13325) | antibiotic susceptibility S/I/R (host strain YMC17/01/B8053) | susceptibility category (S/I/R) (host strain YMC17/01/B8053) | antibiotic susceptibility S/I/R (host strain YMC17/01/B10087) | susceptibility category (S/I/R) (host strain YMC17/01/B10087) | antibiotic susceptibility S/I/R (host strain YMC17/01/B12075) | susceptibility category (S/I/R) (host strain YMC17/01/B12075) | antibiotic susceptibility S/I/R (host strain YMC17/01/B13454) | susceptibility category (S/I/R) (host strain YMC17/01/B13454) | antibiotic susceptibility S/I/R (host strain YMC17/01/P518) | susceptibility category (S/I/R) (host strain YMC17/01/P518) | antibiotic susceptibility S/I/R (host strain YMC17/02/B14) | susceptibility category (S/I/R) (host strain YMC17/02/B14) | antibiotic susceptibility S/I/R (host strain YMC17/02/B87) | susceptibility category (S/I/R) (host strain YMC17/02/B87) | antibiotic susceptibility S/I/R (host strain YMC17/02/B721) | susceptibility category (S/I/R) (host strain YMC17/02/B721) | antibiotic susceptibility S/I/R (host strain YMC17/02/B4039) | susceptibility category (S/I/R) (host strain YMC17/02/B4039) | antibiotic susceptibility S/I/R (host strain YMC17/02/B4520) | susceptibility category (S/I/R) (host strain YMC17/02/B4520) | antibiotic susceptibility S/I/R (host strain YMC17/02/B4864) | susceptibility category (S/I/R) (host strain YMC17/02/B4864) | antibiotic susceptibility S/I/R (host strain YMC17/02/B8414) | susceptibility category (S/I/R) (host strain YMC17/02/B8414) | antibiotic susceptibility S/I/R (host strain YMC17/02/P523) | susceptibility category (S/I/R) (host strain YMC17/02/P523) | antibiotic susceptibility S/I/R (host strain YMC17/03/B4730) | susceptibility category (S/I/R) (host strain YMC17/03/B4730) | antibiotic susceptibility S/I/R (host strain YMC17/03/B5000) | susceptibility category (S/I/R) (host strain YMC17/03/B5000) | antibiotic susceptibility S/I/R (host strain YMC17/03/R4077) | susceptibility category (S/I/R) (host strain YMC17/03/R4077) | antibiotic susceptibility S/I/R (host strain YMC17/03/R4607) | susceptibility category (S/I/R) (host strain YMC17/03/R4607)
